From publication PMC12684391, “Mechanistic insights into the monotherapy and combination potential of FEN1 inhibition in cancer therapy” (Nucleic Acids Research, 2025)

Key:
Type in all cases: cell-based
[1] = tested on: SUM149PT 53BP1KO and SHLD2KO cells; test: Cell viability assay (CTG), 7 days, PARP inhibitor resistant models; settings: less sensitive than parental
Procedure: Cells were seeded in 150 μl of media in 96-well plates or in 70 μl of media in 384-well plates pre-dosed with compounds (8–10 points dose response) with a D300e digital dispenser (Tecan) and incubated for 24 h at 37°C and 5% CO2. Cell proliferation at the end of the assay (7 days) was measured using CTG (Promega, G9243). CTG luminescence was normalized to vehicle treated control for each cell line, and data were fitted with a nonlinear regression curve (four parameters) to generate compound sensitivity curves and determine IC50 or EC50 (half maximal inhibitory/effective concentration) values as indicated.

[2] = tested on: SUM149PT 53BP1KO and SHLD2KO cells; test: Combination viability assay (CTG, Bliss synergy); settings: SUM149PT with 53BP1 or SHLD2 genetically ablated, 7 days
Procedure: (§1) For combination analysis, cells were seeded in 70 μl of media in 384-well plates pre-dosed with compounds (5-point dose–response matrix) with a D300e digital dispenser (Tecan). Cell proliferation was determined after 7 days using CTG. Analysis was performed with Genedata Screener (Compound Synergy Extension) to determine Synergy scores (Bliss model), using a formulation whereby the Blissexcess is a continuous value and values higher than 2 are usually considered synergistic, and values between 0 and 2 are usually considered additive.

[3] = tested on: RD-ES cells; test: Combination viability assay (CTG, Bliss synergy); settings: 7 days
[4] = tested on: DLD-1 WT cells; test: Combination viability assay (CTG, Bliss synergy); settings: 7 days
Procedure: as §1

[5] = tested on: DLD-1 BRCA2KO cells; test: Combination viability assay (CTG, Bliss synergy); settings: 7 days
Procedure: For combination analysis, cells were seeded in 70 μl of media in 384-well plates pre-dosed with compounds (5-point dose–response matrix) with a D300e digital dispenser (Tecan). Cell proliferation was determined after 7 days using CTG.

[6] = tested on: HCT-116, NCI-H460, SUM149PT, MDA-MB-436 cells; test: Combination viability assay (CTG, Bliss synergy); settings: HRP (HCT-116, NCI-H460) and HRD (SUM149PT, MDA-MB-436) cells, 7 days
Procedure: as §1

Cn1ncnc1[C@H]1c2n[nH]c(=O)c3cc(F)cc(c23)N[C@@H]1c1ccc(F)cc1 [talazoparib, reference compound]
Change in sensitivity of SUM149PT 53BP1KO and SHLD2KO cells versus parental cells [1]: ~20 fold
Combination effect with MSC778 [2]: synergized

O=C(c1cc(Cc2n[nH]c(=O)c3ccccc23)ccc1F)N1CCN(C(=O)C2CC2)CC1 [olaparib]
Combination effect with MSC778 [2]: synergized
Combination effect with MSC778 [3]: combination benefit

NC(=O)c1cccc2cn(-c3ccc([C@@H]4CCCNC4)cc3)nc12 [niraparib]
Combination effect with MSC778 [3]: combination benefit

C[C@]1(c2nc3c(C(N)=O)cccc3[nH]2)CCCN1 [veliparib]
Combination effect with MSC778 [3]: combination benefit

PDD00017273
Combination effect with MSC778 [4]: Synergistic
Combination effect with MSC778 [3]: limited to additivity

Cn1cncc1-c1c(F)cncc1NC(=O)c1c(N)nn2cc(F)cnc12 [Tuvusertib]
Combination effect with MSC778 [5]: at best weakly additive

Cc1nc(C)c(Cn2c(=O)n(-c3ncns3)c3cc(S(=O)(=O)NC4(C)CC4)ccc32)s1 [PDD00017238]
Combination effect with MSC778 [4]: Synergistic
Combination benefit with MSC778 [6]: particularly strong

COc1ncnc(C2CC2)c1-c1ncc2cnn(Cc3ccc(-c4nc(C(F)(F)F)cn4C(C)C)cc3)c2n1 [KSQ-4279]
Combination benefit with MSC778 [6]: particularly strong
